Measurements published in patent US8066980B2, “Osteogenic synthetic peptides, pharmaceutical compositions comprising the same, and medium containing the same” (Industry Foundation of Chonnam National University, priority 2008, dated 2011).
Where a SMILES comes first, the peptide text is derived from it.

B1: BMP-7: bone morphogenetic protein-7, known as an osteogenesis promoter; comparator (protein, UniProt P18075 293-431, looked up)
Bone morphogenetic protein 7: STGSKQRSQNRSKTPKNQEALRMANVAENSSSDQRQACKKHELYVSFRDLGWQDWIIAPEGYAAYYCEGECAFPLNSYMNATNHAIVQTLVHFINPETVPKPCCAPTQLNAISVLYFDDSSNVILKKYRNMVVRACGCH

Legend:
cells = experiment: MTT assay for cytotoxicity; format: cell-based; conditions: within a range of used concentrations
surface marker CD44 = experiment: Fluorescence microscopy of surface marker CD44; format: cell-based, mouse; conditions: at the same concentrations
From the text: The effects of BFP 1 and BFP 2 on the expression of the surface marker CD44 were observed under a fluorescence microscope and the results are given in FIGS. 10a and 10b.
During differentiation, the cells were stained with DAPI, a fluorescent stain that easily binds to the DNA of living cells, and with a PE(phycoerythrin)-conjugated-CD44 antibody.

Molecule	cytotoxicity (MTT assay) (cells)	CD44 staining intensity compared with BFP 1 or BFP 2 (surface marker CD44)
CC(C)[C@H](N)C(=O)N[C@@H](CCC(=O)O)C(=O)N[C@@H](Cc1c[nH]cn1)C(=O)N[C@@H](CC(=O)O)C(=O)N[C@@H](CCCCN)C(=O)N[C@@H](CCC(=O)O)C(=O)N[C@@H](Cc1ccccc1)C(=O)N[C@@H](Cc1ccccc1)C(=O)N[C@@H](Cc1c[nH]cn1)C(=O)N1CCC[C@H]1C(=O)N[C@@H](CCCNC(=N)N)C(=O)N[C@@H](Cc1ccc(O)cc1)C(=O)N[C@@H](Cc1c[nH]cn1)C(=O)N[C@@H](Cc1c[nH]cn1)C(=O)N[C@@H](CCCNC(=N)N)C(=O)O [BFP 2, Val-Glu-His-Asp-Lys-Glu-Phe-Phe-His-Pro-Arg-Tyr-His-His-Arg] (H-VEHDKEFFHPRYHHR-OH)	neither BFP 1 nor BFP 2 are toxic to cells	–
CC(C)[C@H](NC(=O)[C@H](C)NC(=O)[C@H](CCCCN)NC(=O)[C@H](Cc1ccc(O)cc1)NC(=O)[C@@H]1CCCN1C(=O)[C@H](Cc1ccc(O)cc1)NC(=O)[C@H](CO)NC(=O)[C@H](Cc1ccccc1)NC(=O)CNC(=O)[C@H](CCC(N)=O)NC(=O)CN)C(=O)N[C@@H](Cc1ccccc1)C(=O)N[C@@H](CO)C(=O)N[C@H](C(=O)N[C@@H](CCC(N)=O)C(=O)O)[C@@H](C)O [BFP 1, Gly-Gln-Gly-Phe-Ser-Tyr-Pro-Tyr-Lys-Ala-Val-Phe-Ser-Thr-Gln] (H-GQGFSYPYKAVFSTQ-OH)	neither BFP 1 nor BFP 2 are toxic to cells	–
B1	–	less intense staining
